Measured values: PMC8459971, “Evaluation of the hepatotoxicity of the novel GPR40 (FFAR1) agonist CPL207280 in the rat and monkey” (PLoS ONE, 2021)
Values joined by “and” are separate entries in the source; they are usually repeats but may differ in a detail not shown here. Identical values can stand only once.

Tests used:
[1] = Metabolite profiling, human hepatocytes; format: in vitro ADME; conditions: human hepatocytes, 10 μM CPL207280, 60 min; ND = not detected
Experimental: (§1) Suspensions of cryopreserved human, rat, and monkey hepatocytes were pooled from a minimum of three individuals. All cryopreserved hepatocytes were purchased from a commercial supplier. […] The cell density was 0.5 ×10^6 viable cells/mL. The final DMSO concentration during the incubation was 0.25%. Control incubations were performed in lysed cells to reveal any non-enzymatic degradation. Two control compounds were identified in each species. Samples (50 μL) were removed from the incubation mixture at 0, 10, 20, 40, 60, and 120 min and added to methanol containing an internal standard (100 μL) to stop the reaction. The samples were centrifuged (4000 x g at 4°C for 30 min) and the supernatants at each time point were pooled for analysis by LC MS/MS using Cyprotex generic methods. Following hepatocyte stability assays, the samples were utilized for metabolite profiling. […] Metabolites were characterized using a mass spectrometer comprising Waters Xevo QT of G2-S, Acquity Binary Solvent Manager, Acquity Column Manager, and 2777 Autosampler.

[2] = Metabolite profiling, rat hepatocytes; format: in vitro ADME; conditions: 10 μM CPL207280, 120 min, ND = not detected
Experimental: as §1

MRP3 = MRP3 (Homo sapiens, UniProt O15438); experiment: Vesicular transport inhibition assay, MRP3; conditions: MRP3; reference inhibitor 150 µM;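 further: membrane vesicles with radiolabelled probe substrate and 2 mM glutathione, 4 mM ATP versus AMP background control, vesicle-trapped substrate quantified by liquid scintillation counting after filtration; ATP 4 mM vs AMP background separates transporter uptake from diffusion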
MRP4 = target: T1, MRP4 (Homo sapiens, UniProt O15439); experiment: Vesicular transport inhibition assay, MRP4; conditions: MRP4; reference inhibitor 150 µM;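 further: membrane vesicles with MRP4 incubated with compound and probe substrate plus 4 mM ATP, or AMP as passive-diffusion background, vesicular substrate uptake read by liquid scintillation counting; ATP 4 mM vs AMP background separates transporter uptake from diffusion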
T1 sequence (O15439 1-1325): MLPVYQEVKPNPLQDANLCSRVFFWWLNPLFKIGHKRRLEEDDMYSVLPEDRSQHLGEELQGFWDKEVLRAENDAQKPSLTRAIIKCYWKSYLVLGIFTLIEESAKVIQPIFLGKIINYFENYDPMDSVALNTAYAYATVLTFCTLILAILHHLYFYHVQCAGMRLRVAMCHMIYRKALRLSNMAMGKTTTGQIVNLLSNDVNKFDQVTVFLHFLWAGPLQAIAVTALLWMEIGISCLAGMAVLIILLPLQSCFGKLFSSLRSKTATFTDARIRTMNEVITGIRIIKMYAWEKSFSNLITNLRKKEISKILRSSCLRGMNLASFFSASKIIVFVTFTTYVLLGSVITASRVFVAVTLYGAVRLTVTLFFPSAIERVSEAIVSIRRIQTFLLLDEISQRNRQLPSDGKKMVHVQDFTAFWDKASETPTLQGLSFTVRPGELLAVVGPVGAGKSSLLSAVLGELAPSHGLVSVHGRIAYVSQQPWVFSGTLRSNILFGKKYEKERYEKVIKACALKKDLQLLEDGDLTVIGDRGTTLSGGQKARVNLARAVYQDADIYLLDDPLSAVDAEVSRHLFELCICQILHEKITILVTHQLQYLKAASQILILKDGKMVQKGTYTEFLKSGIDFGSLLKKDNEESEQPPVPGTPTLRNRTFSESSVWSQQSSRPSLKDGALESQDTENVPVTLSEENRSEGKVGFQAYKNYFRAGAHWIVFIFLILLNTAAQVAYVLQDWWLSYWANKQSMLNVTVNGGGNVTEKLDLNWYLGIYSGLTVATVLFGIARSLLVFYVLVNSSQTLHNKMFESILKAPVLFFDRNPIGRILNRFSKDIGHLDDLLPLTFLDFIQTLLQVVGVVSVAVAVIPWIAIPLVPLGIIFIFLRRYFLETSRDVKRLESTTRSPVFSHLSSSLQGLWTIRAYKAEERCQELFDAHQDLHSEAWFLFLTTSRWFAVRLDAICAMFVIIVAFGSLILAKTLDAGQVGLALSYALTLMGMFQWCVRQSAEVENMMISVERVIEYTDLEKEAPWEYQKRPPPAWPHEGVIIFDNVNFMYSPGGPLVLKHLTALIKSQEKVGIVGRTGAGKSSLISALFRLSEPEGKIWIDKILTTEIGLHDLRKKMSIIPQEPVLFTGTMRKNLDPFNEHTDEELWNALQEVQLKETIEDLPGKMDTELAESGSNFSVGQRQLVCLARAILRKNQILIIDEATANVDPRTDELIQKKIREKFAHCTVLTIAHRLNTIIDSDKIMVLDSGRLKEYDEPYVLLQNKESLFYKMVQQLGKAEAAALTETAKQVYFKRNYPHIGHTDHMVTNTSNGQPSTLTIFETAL

MRP3, sequence (O15438 whole entry, the tested form may be a part): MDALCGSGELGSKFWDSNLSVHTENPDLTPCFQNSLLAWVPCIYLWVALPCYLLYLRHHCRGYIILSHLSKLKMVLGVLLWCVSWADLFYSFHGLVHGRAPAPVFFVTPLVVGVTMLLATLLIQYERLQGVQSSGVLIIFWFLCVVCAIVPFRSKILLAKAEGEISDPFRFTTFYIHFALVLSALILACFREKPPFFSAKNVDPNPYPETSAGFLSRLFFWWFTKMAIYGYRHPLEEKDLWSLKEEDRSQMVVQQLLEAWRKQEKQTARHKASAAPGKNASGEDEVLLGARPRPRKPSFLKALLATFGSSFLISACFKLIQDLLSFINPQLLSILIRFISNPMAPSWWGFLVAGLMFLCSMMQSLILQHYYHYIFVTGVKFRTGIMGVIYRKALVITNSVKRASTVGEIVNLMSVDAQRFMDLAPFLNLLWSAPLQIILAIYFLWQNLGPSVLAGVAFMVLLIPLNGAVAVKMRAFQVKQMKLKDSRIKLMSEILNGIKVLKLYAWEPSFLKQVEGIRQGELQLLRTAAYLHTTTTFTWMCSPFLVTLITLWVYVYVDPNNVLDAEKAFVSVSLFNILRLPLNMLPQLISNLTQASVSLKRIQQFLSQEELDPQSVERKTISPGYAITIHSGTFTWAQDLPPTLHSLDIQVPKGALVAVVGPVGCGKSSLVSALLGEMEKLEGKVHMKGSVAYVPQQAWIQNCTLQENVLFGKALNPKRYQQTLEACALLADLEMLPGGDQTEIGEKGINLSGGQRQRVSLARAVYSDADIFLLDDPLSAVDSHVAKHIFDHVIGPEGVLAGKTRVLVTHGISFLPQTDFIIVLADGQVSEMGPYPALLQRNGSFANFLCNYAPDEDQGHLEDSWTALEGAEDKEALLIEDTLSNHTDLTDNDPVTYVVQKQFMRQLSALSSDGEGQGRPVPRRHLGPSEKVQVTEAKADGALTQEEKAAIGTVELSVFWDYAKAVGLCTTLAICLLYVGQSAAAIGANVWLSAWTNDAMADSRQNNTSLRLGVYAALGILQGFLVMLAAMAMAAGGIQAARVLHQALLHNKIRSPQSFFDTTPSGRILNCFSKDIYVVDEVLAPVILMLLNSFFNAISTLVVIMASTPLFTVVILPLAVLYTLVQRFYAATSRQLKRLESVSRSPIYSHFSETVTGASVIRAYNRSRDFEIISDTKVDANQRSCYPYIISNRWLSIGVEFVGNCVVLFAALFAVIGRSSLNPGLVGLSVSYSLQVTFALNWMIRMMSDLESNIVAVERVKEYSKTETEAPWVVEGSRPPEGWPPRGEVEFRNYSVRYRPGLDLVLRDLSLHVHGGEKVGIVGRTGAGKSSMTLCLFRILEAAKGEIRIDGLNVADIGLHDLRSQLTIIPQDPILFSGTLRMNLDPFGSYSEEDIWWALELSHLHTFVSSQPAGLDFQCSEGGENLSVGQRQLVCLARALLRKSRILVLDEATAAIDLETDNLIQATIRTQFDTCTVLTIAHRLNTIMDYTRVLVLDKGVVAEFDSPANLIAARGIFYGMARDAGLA

human % of parent at 60 min [1] [%]	rat % of parent at 120 min [2] [%]	Accumulation (counts per minute; CPM) with AMP (MRP4)	Accumulation (counts per minute; CPM) with ATP (MRP4)	SMILES	Accumulation (counts per minute; CPM) with AMP (MRP3)	Accumulation (counts per minute; CPM) with ATP (MRP3)
1.44	2.88	–	–	CC#CC(CC(=O)OC1OC(C(=O)O)C(O)C(O)C1O)c1ccc(OCC(C)=C(C)C)cc1 (stereo not drawn) [M15]	–	–
–	–	1227 CPM and 1197 CPM	1356 CPM and 1304 CPM	CN(C)C(=O)CCSC(SCCC(=O)O)c1cccc(/C=C/c2ccc3ccc(Cl)cc3n2)c1 (stereo not drawn) [MK571]	193 CPM and 200 CPM and 153 CPM and 106 CPM	299 CPM and 302 CPM and 151 CPM and 183 CPM
